Assay [1] relates to lung cancer cell line BC (cisplatin-resistant). In words: Growth inhibition and cytotoxicity assay (trypan blue), BC cells. The class given is cell-based. The settings on record: Homo sapiens. How it is done: (§1) In this study 3 different human-derived lung cancer cell lines were exposed to vehicle control (parental cells B, S and A) or long-term incubation with cisplatin (BC, SC and ALC cells). Long-term incubation with cisplatin induced cisplatin-resistance in the BC, SC and ALC cell lines.
(§2) Cells were seeded in 24-well dishes and treated with various concentrations of inhibitors (i.e. Epacadostat or AT-0174). Briefly, the culture media as well as the trypsinized cells were collected and this mixture was centrifuged at 400×g for 5 min. The supernatant was discarded, re-suspended in 1 mL of Hank's buffer, and assayed for live cells and death cells using trypan blue exclusion method.
(§3) Data from in vitro experiments were performed from three separate biological replicates which were isolated and analyzed in technical triplicates. Separate measurements using the two-tailed t-test and the results were expressed as mean±standard deviation.

Assay [2] has as its system lung cancer cell line ALC (cisplatin-resistant). In words: Growth inhibition and cytotoxicity assay (trypan blue), ALC cells. The class given is cell-based. The settings on record: Homo sapiens. How it is done:
as §1, §2, §3

We go through one compound from patent publication US20250186410A1, “DUAL INHIBITORS OF TRYPTOPHAN DIOXYGENASES (IDO1 AND TDO) AND THEIR USE IN THERAPY” (ANTIDO THERAPEUTICS INTERNATIONAL SÀRL, priority 2022, published 2025).

As to `Nc1noc2nc(Cl)c(F)cc12` [Compound 66, 6-Chloro-5-fluoroisoxazolo[5,4-b]pyridin-3-amine], the viability at 12.5 µM in assay [1] (12.5 μM AT-0174) turned out to be 78.8 ± 6.4%; in assay [2] (12.5 μM AT-0174), 76.7 ± 4.2%. In addition, the viability at 25 µM in assay [1] (25.0 μM AT-0174) is 65.3 ± 0.7%; in assay [2] (25.0 μM AT-0174), 62.5 ± 4.9%. In addition, the viability at 50 µM in assay [1] (50.0 μM AT-0174) turned out to be 59.9 ± 4.9%; in assay [2] (50.0 μM AT-0174), 67.3 ± 13.4%.
